Measurements as given in US9221795B2, “Phosphatidylinositol 3-kinase inhibitors” (Gilead Sciences, Inc., priority 2013, dated 2015).

Key:
PI3Kβ = PI3Kβ (Homo sapiens (Human), UniProt P42338); test: Enzymatic activity of PI3K isoforms, TR-FRET assay (PI3Kβ); type: biochemical; conditions: 2× Km ATP, geometric mean if more than one value
Experimental: Enzymatic activity of the class I PI3K isoforms in the presence of the compounds of Table 1 and Compounds X, Y and Z was measured using a time-resolved fluorescence resonance energy transfer (TR-FRET) assay. The TR-FRET assay was used to monitor formation of the product 3,4,5-inositol triphosphate molecule (PIP3) as it competed with fluorescently labeled PIP3 for binding to the GRP-1 pleckstrin homology domain protein. An increase in […] product results in a decrease in TR-FRET signal as the labeled fluorophore is displaced from the GRP-1 protein binding site.
Class I PI3K isoforms were expressed and purified as heterodimeric recombinant proteins. All assay reagents and buffers for the TR-FRET assay were purchased from Millipore. PI3K isoforms were assayed under initial rate conditions in the presence of 25 mM Hepes (pH 7.4), and 2× Km ATP (75-500 μM), 2 μM PIP2, 5% glycerol, 5 mM MgCl2, 50 mM NaCl, 0.05% (v/v) Chaps, 1 mM dithiothreitol, 1% (v/v) DMSO at the following concentrations for each isoforms: PI3Kα, PI3Kβ, and PI3Kδ between 25 and 50 pM, and PI3Kγ at 2 nM. After an assay reaction time of 30 minutes at 25° C., reactions were terminated with a final concentration of 10 mM EDTA, 10 nM labeled-PIP3, and 35 nM Europium labeled GRP-1 detector protein before reading TR-FRET on an Envision plate reader (Ex: 340 nm; Em: 615/665 nm; […] delay and 500 μs read window).
Data were normalized based on positive ([…] wortmanin) and negative (DMSO) controls. α, β, δ, and γ IC50 values were calculated from the fit of the dose-response curves to a four-parameter equation. All IC50 values represent geometric mean values if more than one value was obtained. IC50 values were reported in units of nM.

[1] = Hepatocyte stability (parent drug disappearance in cryopreserved hepatocytes); type: in vitro ADME, human; conditions: human, cryopreserved human hepatocytes, 2 μM substrate, 37° C.; Table 2a
Outline: (§1)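 Test article at 2 μM incubated in duplicate with 1 million hepatocytes/mL at 37 °C, 5% CO2, humidified. Parent loss tracked by LC/MS at 0, 1, 2 and 4 h, giving half-life (t1/2) in hours.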

PI3Kδ = PI3Kδ (Homo sapiens (Human), UniProt O00329); test: Enzymatic activity of PI3K isoforms, TR-FRET assay (PI3Kδ); type: biochemical; conditions: 2× Km ATP, geometric mean if more than one value
Outline: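 Recombinant heterodimeric PI3Kβ or PI3Kδ (25-50 pM) was run with 2 μM PIP2 and 2× Km ATP (75-500 μM) at pH 7.4, for 30 min at 25° C. PIP3 formation was detected by TR-FRET displacement of labeled PIP3 from Eu-GRP-1. IC50 values in nM come from four-parameter fits, as geometric means.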

basophils = test: Basophil activation in human whole blood (Flow2 CAST kit, CD63 flow cytometry); type: cell-based; conditions: Homo sapiens, human whole blood, basophils activated with anti-FcεRI mAb or fMLP, percent CD63 positive cells
[2] = tested on: cryopreserved human hepatocytes; test: Hepatocyte stability (parent drug disappearance in cryopreserved hepatocytes); type: in vitro ADME; conditions: human hepatocytes, 2 μM substrate, 37° C.
Outline: as §1

Sequence of PI3Kβ (P42338 whole entry, the tested form may be a part, canonical isoform): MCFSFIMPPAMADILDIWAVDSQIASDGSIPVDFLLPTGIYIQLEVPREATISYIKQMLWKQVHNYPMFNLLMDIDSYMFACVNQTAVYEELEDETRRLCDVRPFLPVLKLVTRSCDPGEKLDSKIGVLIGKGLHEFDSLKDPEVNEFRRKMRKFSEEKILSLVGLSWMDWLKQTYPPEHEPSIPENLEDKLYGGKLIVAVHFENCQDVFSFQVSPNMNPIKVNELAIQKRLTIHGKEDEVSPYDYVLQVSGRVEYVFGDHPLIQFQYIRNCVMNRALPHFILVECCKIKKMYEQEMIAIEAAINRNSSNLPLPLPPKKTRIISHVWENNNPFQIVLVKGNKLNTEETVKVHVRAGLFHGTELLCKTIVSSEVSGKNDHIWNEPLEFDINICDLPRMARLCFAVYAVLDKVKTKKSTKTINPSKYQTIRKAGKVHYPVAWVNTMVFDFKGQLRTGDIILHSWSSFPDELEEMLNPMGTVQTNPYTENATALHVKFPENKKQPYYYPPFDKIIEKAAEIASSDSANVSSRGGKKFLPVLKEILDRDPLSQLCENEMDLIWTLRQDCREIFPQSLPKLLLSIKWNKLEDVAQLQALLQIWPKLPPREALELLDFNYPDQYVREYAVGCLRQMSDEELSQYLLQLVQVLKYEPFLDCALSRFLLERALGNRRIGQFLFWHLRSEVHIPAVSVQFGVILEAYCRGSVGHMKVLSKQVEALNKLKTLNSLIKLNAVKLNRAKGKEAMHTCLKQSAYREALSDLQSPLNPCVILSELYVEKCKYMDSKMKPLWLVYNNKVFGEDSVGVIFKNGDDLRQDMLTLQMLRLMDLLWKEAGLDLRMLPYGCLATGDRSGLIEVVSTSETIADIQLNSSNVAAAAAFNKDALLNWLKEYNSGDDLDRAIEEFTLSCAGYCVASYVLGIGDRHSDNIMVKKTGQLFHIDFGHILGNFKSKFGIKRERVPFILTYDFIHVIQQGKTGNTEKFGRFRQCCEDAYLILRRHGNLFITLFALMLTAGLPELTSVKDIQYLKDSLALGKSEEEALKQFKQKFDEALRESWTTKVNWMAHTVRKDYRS
Sequence of PI3Kβ (P27986 whole entry partner, the tested form may be a part, canonical isoform): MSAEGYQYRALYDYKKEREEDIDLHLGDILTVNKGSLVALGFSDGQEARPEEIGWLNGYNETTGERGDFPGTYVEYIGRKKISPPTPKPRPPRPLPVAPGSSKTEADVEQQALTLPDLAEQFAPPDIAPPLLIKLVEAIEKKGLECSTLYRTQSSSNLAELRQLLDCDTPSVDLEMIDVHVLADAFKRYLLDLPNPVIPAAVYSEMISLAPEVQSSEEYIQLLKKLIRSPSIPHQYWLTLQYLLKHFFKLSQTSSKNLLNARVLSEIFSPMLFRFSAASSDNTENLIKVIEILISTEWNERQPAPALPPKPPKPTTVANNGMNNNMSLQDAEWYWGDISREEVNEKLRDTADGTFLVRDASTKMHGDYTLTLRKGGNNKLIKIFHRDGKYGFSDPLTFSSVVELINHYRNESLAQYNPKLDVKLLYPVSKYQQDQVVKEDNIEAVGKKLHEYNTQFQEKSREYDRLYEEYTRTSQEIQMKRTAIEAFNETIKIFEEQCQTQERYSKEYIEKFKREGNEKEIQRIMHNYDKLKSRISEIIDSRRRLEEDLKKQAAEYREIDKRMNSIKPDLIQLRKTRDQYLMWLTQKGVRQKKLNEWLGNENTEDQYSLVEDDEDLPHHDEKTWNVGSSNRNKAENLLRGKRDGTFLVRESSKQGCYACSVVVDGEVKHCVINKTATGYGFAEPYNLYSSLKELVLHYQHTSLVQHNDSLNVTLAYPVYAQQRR
Sequence of PI3Kδ (O00329 whole entry, canonical isoform): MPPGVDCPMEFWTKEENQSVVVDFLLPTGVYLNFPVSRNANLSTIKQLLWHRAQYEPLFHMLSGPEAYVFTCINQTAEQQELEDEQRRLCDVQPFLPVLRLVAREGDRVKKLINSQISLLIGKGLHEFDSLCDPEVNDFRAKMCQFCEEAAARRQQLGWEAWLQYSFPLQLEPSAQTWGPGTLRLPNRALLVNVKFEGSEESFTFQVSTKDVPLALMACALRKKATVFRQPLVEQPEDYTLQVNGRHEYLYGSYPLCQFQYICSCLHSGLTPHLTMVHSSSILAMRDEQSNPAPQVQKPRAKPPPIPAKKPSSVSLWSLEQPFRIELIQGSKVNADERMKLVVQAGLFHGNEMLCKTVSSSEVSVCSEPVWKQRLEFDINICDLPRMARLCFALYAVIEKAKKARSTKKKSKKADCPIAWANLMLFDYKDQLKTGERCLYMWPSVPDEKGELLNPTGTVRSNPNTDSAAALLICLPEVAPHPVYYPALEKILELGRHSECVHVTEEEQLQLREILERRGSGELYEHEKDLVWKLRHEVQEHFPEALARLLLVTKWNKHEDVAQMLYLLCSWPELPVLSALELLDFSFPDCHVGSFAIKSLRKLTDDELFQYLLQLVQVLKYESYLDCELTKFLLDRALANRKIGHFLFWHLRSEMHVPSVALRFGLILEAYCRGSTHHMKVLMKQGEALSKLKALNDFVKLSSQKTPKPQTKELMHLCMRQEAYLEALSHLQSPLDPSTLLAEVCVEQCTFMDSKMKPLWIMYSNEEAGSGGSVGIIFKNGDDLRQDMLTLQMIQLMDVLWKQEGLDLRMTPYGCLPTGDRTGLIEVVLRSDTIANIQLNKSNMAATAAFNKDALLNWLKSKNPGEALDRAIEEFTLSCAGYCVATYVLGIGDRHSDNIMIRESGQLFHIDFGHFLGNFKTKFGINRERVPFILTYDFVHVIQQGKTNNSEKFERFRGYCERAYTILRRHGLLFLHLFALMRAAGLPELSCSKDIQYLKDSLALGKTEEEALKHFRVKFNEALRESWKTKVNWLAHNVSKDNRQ
Sequence of PI3Kδ (P27986 whole entry partner, canonical isoform): as the sequence (P27986 whole entry partner, the tested form may be a part, canonical isoform) above

| Compound | IC50 (PI3Kβ) | half-life at 2 μM [1] | IC50 (PI3Kδ) | EC50 (basophils; class symbol) | EC50 (basophils; geometric mean) | t1/2 ([2]; class symbol) | t1/2 ([2]; Table 3) |
| --- | --- | --- | --- | --- | --- | --- | --- |
| C[C@H](Nc1nc(N)nc(N)c1C#N)c1nc2cccc(Cl)c2c(=O)n1-c1ccc(N)nc1 [Compound 97, (S)-2,4-diamino-6-((1-(3-(6-aminopyridin-3-yl)-5-chloro-4-oxo-3,4-dihydroquinazolin-2-yl)ethyl)amino)pyrimidine-5-carbonitrile] | 0.7 nM | > 600 min | 0.8 nM |  |  |  |  |
| C[C@H](Nc1nc(N)nc(N)c1Cl)c1nc2c(F)ccc(Cl)c2c(=O)n1-c1ccc(N)nc1 [Compound 88, (S)-3-(6-aminopyridin-3-yl)-5-chloro-2-(1-((2,6-diamino-5-chloropyrimidin-4-yl)amino)ethyl)-8-fluoroquinazolin-4(3H)-one] | 11 nM | > 600 min | 6 nM |  |  |  |  |
| C[C@H](Nc1nc(N)nc(N)c1C#N)c1nc2c(Cl)ccc(Cl)c2c(=O)n1-c1ccc(N)nc1 [Compound 84, (S)-2,4-diamino-6-((1-(3-(6-aminopyridin-3-yl)-5,8-dichloro-4-oxo-3,4-dihydroquinazolin-2-yl)ethyl)amino)pyrimidine-5-carbonitrile] | 1 nM | 600 min | 0.5 nM |  |  |  |  |
| C[C@H](Nc1nc(N)nc(N)c1Cl)c1nc2cccc(Cl)c2c(=O)n1-c1ccc(N)nc1 [Compound 85, (S)-3-(6-aminopyridin-3-yl)-5-chloro-2-(1-((2,6-diamino-5-chloropyrimidin-4-yl)amino)ethyl)quinazolin-4(3H)-one] | 9 nM | > 600 min | 3 nM |  |  |  |  |
| CC[C@H](Nc1nc(N)nc(N)c1C#N)c1nc2cccc(Cl)c2c(=O)n1-c1cnc(N)cc1C (atropisomer, axis not shown) [Compound 92, (S)-2,4-diamino-6-((1-(3-(6-amino-4-methylpyridin-3-yl)-5-chloro-4-oxo-3,4-dihydroquinazolin-2-yl)propyl)amino)pyrimidine-5-carbonitrile] | 1 nM | 240 min | 0.8 nM |  |  |  |  |
| N#Cc1c(N)nc(N)nc1N[C@H](c1nc2cccc(Cl)c2c(=O)n1-c1ccc(N)nc1)C1CC1 [Compound 90, (S)-2,4-diamino-6-(((3-(6-aminopyridin-3-yl)-5-chloro-4-oxo-3,4-dihydroquinazolin-2-yl)(cyclopropyl)methyl)amino)pyrimidine-5-carbonitrile] | 2 nM |  | 0.6 nM |  |  |  |  |
| Cc1cc(N)ncc1-n1c([C@H](C)Nc2nc(N)nc(N)c2C#N)nc2cccc(Cl)c2c1=O (atropisomer, axis not shown) [Compound 94, (S)-2,4-diamino-6-((1-(3-(6-amino-4-methylpyridin-3-yl)-5-chloro-4-oxo-3,4-dihydroquinazolin-2-yl)ethyl)amino)pyrimidine-5-carbonitrile] | 1 nM | 600 min | 0.5 nM |  |  |  |  |
| N#Cc1c(N)nc(N)nc1N[C@H](c1nc2c(F)ccc(Cl)c2c(=O)n1-c1ccc(N)nc1)C1CC1 [Compound 107, (S)-2,4-diamino-6-(((3-(6-aminopyridin-3-yl)-5-chloro-8-fluoro-4-oxo-3,4-dihydroquinazolin-2-yl)(cyclopropyl)methyl)amino)pyrimidine-5-carbonitrile] | 3 nM |  | 1 nM |  |  |  |  |
| CC[C@H](Nc1nc(N)nc(N)c1Cl)c1nc2cccc(Cl)c2c(=O)n1-c1ccc(N)nc1 [Compound 86, (S)-3-(6-aminopyridin-3-yl)-5-chloro-2-(1-((2,6-diamino-5-chloropyrimidin-4-yl)amino)propyl)quinazolin-4(3H)-one] | 35 nM |  | 9 nM |  |  |  |  |
| CCC[C@H](Nc1nc(N)nc(N)c1C#N)c1nc2ccc(F)c(Cl)c2c(=O)n1-c1ccc(N)nc1 [Compound 105, (S)-2,4-diamino-6-((1-(3-(6-aminopyridin-3-yl)-5-chloro-6-fluoro-4-oxo-3,4-dihydroquinazolin-2-yl)butyl)amino)pyrimidine-5-carbonitrile] | 41 nM |  | 9 nM |  |  |  |  |
| Nc1ccc(-n2c([C@@H](Nc3nc(N)nc(N)c3Cl)C3CC3)nc3cccc(Cl)c3c2=O)cn1 [Compound 89, (S)-3-(6-aminopyridin-3-yl)-5-chloro-2-(cyclopropyl((2,6-diamino-5-chloropyrimidin-4-yl)amino)methyl)quinazolin-4(3H)-one] | 27 nM |  | 9 nM |  |  |  |  |
| CCC[C@H](Nc1nc(N)nc(N)c1Cl)c1nc2ccc(F)c(Cl)c2c(=O)n1-c1ccc(N)nc1 [Compound 104, (S)-3-(6-aminopyridin-3-yl)-5-chloro-2-(1-((2,6-diamino-5-chloropyrimidin-4-yl)amino)butyl)-6-fluoroquinazolin-4(3H)-one] | 530 nM |  | 94 nM |  |  |  |  |
| C[C@H](Nc1nc(N)nc(N)c1Cl)c1nc2ccc(F)c(Cl)c2c(=O)n1-c1ccc(N)nc1 [Compound 100, (S)-3-(6-aminopyridin-3-yl)-5-chloro-2-(1-((2,6-diamino-5-chloropyrimidin-4-yl)amino)ethyl)-6-fluoroquinazolin-4(3H)-one] | 100 nM |  | 48 nM |  |  |  |  |
| Cc1cc(N)ncc1-n1c([C@H](C)Nc2nc(N)nc(N)c2C#N)nc2c(Cl)ccc(Cl)c2c1=O (atropisomer, axis not shown) [Compound 96, (S)-2,4-diamino-6-((1-(3-(6-amino-4-methylpyridin-3-yl)-5,8-dichloro-4-oxo-3,4-dihydroquinazolin-2-yl)ethyl)amino)pyrimidine-5-carbonitrile] | 3 nM | 240 min | 1 nM |  |  |  |  |
| Cc1c(F)cncc1-n1c([C@H](C)Nc2nc(N)nc(N)c2C#N)nc2cccc(Cl)c2c1=O (atropisomer, axis not shown) [Compound 47, (S)-2,4-diamino-6-(1-(5-chloro-3-(5-fluoro-4-methylpyridin-3-yl)-4-oxo-3,4-dihydroquinazolin-2-yl)ethylamino)pyrimidine-5-carbonitrile] |  |  | 0.5 nM | < 1 nM | 0.4 nM | ***** (***** = >10 h) | >10 h |
| CC[C@H](Nc1nc(N)nc(N)c1C#N)c1nc2cccc(Cl)c2c(=O)n1-c1ccc(N)nc1 [Compound 87, (S)-2,4-diamino-6-((1-(3-(6-aminopyridin-3-yl)-5-chloro-4-oxo-3,4-dihydroquinazolin-2-yl)propyl)amino)pyrimidine-5-carbonitrile] | 0.8 nM | > 600 min | 0.6 nM |  |  |  |  |
| CC[C@H](Nc1nc(N)nc(N)c1C#N)c1nc2cccc(Cl)c2c(=O)n1-c1cnc(N)cc1C (atropisomer, axis not shown) [Compound 91, (S)-2,4-diamino-6-((1-(3-(6-amino-4-methylpyridin-3-yl)-5-chloro-4-oxo-3,4-dihydroquinazolin-2-yl)propyl)amino)pyrimidine-5-carbonitrile] | 99 nM |  | 4 nM |  |  |  |  |
| C[C@H](Nc1nc(N)nc(N)c1C#N)c1nc2c(Cl)cc(F)cc2c(=O)n1-c1ccc(N)nc1 [Compound 82, (S)-2,4-diamino-6-((1-(3-(6-aminopyridin-3-yl)-8-chloro-6-fluoro-4-oxo-3,4-dihydroquinazolin-2-yl)ethyl)amino)pyrimidine-5-carbonitrile] | 5 nM | > 600 min | 5 nM |  |  |  |  |
